Entries after “also recorded” stand apart in the source; their conditions may differ.
Experiments:
[1] = system: A549 (lung carcinoma); test: MTT cell proliferation assay, A549; type: cell-based; settings: Homo sapiens, A549, 72 h of exposition, read-out: Anti-proliferative activity IC50, A549
In short: (§1)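 Cell viability was measured by MTT assay and IC50 values were derived from it. Compounds were screened across six cancer lines, with RPMI 1788 human B lymphocytes serving as the normal-cell toxicity control.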

[2] = system: cancer cell lines (K562, HL-60, MCF-7, HepG2, A549, OKP-GS); test: MTT cell proliferation assay, statements over the whole cell line panel; type: cell-based; settings: statement over the cell line panel, studied concentration range up to 50 µM
Protocol: Tests to determine the effects of the synthesized compounds on cell viability and the half-maximal inhibitory concentration (IC50) were performed using the MTT assay, as described in our prior work.
The target compounds 5, 6, 8–12, 14, 15, 17–22 and 24–26 were tested for antiproliferative activity against six cancer cell lines: K562 (chronic myelogenous leukemia), HL-60 (promyelocytic leukemia), MCF-7 (breast adenocarcinoma), HepG2 (human liver cancer), A549 (lung carcinoma) and OKP-GS (renal cell carcinoma). The RPMI 1788 cells (B lymphocyte, human) were used as a control to evaluate the system toxicity of the studied compounds to normal cells. Sorafenib, nilotinib and lapatinib were utilized as reference standards for comparison.

[3] = system: HepG2 (human liver cancer); test: MTT cell proliferation assay, HepG2; type: cell-based; settings: Homo sapiens, HepG2, 72 h, HepG2, 72 h of exposition, read-out: Anti-proliferative activity IC50, HepG2
In short: as §1

[4] = system: HL-60 (promyelocytic leukemia); test: MTT cell proliferation assay, HL-60; type: cell-based; settings: Homo sapiens, HL-60, 72 h of exposition, read-out: Anti-proliferative activity IC50, HL-60
In short: as §1

[5] = system: OKP-GS (renal cell carcinoma); test: MTT cell proliferation assay, OKP-GS; type: cell-based; settings: 72 h of exposition, read-out: Anti-proliferative activity IC50, OKP-GS
In short: as §1

[6] = system: MCF-7 (breast adenocarcinoma); test: MTT cell proliferation assay, MCF-7; type: cell-based; settings: Homo sapiens, MCF7, MCF-7, 72 h of exposition, read-out: Anti-proliferative activity IC50, MCF-7
In short: as §1

[7] = system: RPMI 1788 cells (B lymphocyte, human); test: MTT cell proliferation assay, normal RPMI 1788 cells; type: cell-based; settings: normal human lymphoblastoid cells RPMI 1788, 72 h of exposition, read-out: Anti-proliferative activity IC50, RPMI 1788
In short: as §1

[8] = system: K562 (chronic myelogenous leukemia); test: MTT cell proliferation assay, K562; type: cell-based; settings: Homo sapiens, K562, 72 h of exposition, read-out: Anti-proliferative activity IC50, K562
In short: as §1

[9] = target: T1, PDGFRα (Homo sapiens, UniProt P16234); test: ADP-Glo kinase assay, PDGFRα; type: biochemical
T1 construct: purchased Promega
T1 sequence (P16234 24-1089): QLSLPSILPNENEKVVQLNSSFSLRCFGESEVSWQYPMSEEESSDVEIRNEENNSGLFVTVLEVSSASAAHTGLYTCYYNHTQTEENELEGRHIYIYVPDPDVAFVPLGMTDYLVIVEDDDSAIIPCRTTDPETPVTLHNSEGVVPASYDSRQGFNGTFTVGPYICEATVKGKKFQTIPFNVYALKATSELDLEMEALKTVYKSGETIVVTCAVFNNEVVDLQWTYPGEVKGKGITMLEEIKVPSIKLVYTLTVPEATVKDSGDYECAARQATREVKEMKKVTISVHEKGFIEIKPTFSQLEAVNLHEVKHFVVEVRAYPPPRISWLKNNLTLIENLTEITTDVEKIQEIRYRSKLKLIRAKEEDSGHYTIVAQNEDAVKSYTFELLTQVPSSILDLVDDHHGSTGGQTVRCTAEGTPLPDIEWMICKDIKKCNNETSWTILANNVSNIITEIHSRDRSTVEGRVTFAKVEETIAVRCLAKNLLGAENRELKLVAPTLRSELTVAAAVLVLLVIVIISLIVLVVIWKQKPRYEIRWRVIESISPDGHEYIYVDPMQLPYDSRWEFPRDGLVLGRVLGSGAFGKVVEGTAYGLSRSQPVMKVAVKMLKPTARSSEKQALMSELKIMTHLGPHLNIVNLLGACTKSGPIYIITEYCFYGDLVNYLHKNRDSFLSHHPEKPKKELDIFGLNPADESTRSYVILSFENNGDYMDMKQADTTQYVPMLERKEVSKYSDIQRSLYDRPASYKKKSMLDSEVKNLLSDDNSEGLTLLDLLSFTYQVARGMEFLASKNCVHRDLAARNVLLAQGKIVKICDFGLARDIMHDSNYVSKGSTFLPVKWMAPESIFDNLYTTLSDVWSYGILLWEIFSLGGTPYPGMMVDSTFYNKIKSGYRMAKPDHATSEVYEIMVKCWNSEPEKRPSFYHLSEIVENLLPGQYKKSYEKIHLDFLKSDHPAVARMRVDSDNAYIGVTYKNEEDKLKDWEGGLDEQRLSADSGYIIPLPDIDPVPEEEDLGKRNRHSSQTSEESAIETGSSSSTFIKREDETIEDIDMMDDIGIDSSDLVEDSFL
In short: (§2)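 Compounds were screened for kinase inhibition with the ADP-Glo luminescent ADP-detection assay, using a tyrosine kinase selectivity profiling panel and run per the kit protocol.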

[10] = target: T2, HER4 (Homo sapiens, UniProt Q15303); test: ADP-Glo kinase assay, HER4; type: biochemical
T2 construct: purchased Promega
T2 sequence (Q15303 26-1308): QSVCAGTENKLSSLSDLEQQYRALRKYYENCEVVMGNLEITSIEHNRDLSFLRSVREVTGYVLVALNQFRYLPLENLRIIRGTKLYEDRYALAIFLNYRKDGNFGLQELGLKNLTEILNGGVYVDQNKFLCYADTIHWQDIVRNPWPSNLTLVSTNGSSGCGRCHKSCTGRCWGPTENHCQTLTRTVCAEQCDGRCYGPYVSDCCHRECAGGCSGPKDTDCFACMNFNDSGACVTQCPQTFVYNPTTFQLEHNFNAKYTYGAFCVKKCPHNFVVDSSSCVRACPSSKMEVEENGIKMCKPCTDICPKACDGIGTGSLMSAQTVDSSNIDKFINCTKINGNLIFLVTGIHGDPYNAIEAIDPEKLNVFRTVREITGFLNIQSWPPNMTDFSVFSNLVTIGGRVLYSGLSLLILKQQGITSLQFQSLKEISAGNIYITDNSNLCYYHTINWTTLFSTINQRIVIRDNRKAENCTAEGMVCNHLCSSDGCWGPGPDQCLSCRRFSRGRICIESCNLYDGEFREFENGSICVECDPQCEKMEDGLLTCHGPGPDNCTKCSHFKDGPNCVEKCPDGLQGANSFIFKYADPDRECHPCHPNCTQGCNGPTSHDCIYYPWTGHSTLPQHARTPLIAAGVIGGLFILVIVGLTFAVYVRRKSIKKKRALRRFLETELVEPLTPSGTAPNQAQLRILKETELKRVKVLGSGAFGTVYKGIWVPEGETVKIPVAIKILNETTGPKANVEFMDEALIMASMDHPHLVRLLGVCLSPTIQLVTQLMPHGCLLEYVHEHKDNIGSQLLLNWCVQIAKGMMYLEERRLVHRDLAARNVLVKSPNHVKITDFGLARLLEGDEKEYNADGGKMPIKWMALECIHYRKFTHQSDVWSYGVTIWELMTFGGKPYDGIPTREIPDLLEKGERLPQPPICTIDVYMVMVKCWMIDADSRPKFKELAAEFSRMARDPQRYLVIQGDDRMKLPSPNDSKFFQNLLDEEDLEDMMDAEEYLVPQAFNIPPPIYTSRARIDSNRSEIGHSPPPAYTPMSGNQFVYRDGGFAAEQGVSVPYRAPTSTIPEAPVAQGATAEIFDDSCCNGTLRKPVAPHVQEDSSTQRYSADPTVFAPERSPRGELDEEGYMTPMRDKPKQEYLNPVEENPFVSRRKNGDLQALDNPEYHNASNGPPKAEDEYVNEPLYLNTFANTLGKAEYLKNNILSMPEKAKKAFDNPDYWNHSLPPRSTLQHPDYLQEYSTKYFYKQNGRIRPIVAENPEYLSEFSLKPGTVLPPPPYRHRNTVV
Protocol: (§3) The ADP-Glo kinase assay (Promega, Madison, WI, USA) was used to screen compounds 5, 8–10, 14, 17, 19 and 24 for the tyrosine kinase (Kinase Selectivity Profiling System TK-1, Promega, Madison, WI, USA) and serine/threonine kinase (Kinase Selectivity Profiling System Other/CK-1, Promega, Madison, WI, USA) inhibition effects according to the manufacturer’s technical manual. The luminescence data were analyzed as described in our prior work.
(§4) The selectivity of the potential kinase inhibitor against a specific protein kinase or a specific family of kinases was investigated using the Kinase Selectivity Profiling System TK-1, Other/CK-1 and ADP-Glo™ Kinase assay kit (Promega, Madison, WI, USA).

[11] = target: T3, Aurora B (Homo sapiens, UniProt Q96GD4); test: ADP-Glo kinase assay, Aurora B; type: biochemical
T3 construct: purchased Promega
T3 sequence (Q96GD4 whole entry): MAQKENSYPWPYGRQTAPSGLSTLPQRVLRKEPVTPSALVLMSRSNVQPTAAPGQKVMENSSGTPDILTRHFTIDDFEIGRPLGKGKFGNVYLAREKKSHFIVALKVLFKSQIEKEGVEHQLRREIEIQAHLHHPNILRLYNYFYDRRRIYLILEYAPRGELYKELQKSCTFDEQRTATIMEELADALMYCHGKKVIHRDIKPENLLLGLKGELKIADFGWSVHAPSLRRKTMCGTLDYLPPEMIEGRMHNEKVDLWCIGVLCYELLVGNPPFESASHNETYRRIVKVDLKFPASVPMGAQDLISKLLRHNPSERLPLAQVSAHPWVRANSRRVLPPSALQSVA
Protocol: as §3, §4

[12] = target: T4, InsR (insulin receptor) (Homo sapiens, UniProt P06213); test: ADP-Glo kinase assay, InsR; type: biochemical
T4 construct: purchased Promega
Protocol: as §3, §4

[13] = target: T5, IGF1R (insulin-like growth factor 1 receptor) (Homo sapiens, UniProt P08069); test: ADP-Glo kinase assay, IGF1R; type: biochemical
T5 construct: purchased Promega
T5 sequence (P08069 31-1367): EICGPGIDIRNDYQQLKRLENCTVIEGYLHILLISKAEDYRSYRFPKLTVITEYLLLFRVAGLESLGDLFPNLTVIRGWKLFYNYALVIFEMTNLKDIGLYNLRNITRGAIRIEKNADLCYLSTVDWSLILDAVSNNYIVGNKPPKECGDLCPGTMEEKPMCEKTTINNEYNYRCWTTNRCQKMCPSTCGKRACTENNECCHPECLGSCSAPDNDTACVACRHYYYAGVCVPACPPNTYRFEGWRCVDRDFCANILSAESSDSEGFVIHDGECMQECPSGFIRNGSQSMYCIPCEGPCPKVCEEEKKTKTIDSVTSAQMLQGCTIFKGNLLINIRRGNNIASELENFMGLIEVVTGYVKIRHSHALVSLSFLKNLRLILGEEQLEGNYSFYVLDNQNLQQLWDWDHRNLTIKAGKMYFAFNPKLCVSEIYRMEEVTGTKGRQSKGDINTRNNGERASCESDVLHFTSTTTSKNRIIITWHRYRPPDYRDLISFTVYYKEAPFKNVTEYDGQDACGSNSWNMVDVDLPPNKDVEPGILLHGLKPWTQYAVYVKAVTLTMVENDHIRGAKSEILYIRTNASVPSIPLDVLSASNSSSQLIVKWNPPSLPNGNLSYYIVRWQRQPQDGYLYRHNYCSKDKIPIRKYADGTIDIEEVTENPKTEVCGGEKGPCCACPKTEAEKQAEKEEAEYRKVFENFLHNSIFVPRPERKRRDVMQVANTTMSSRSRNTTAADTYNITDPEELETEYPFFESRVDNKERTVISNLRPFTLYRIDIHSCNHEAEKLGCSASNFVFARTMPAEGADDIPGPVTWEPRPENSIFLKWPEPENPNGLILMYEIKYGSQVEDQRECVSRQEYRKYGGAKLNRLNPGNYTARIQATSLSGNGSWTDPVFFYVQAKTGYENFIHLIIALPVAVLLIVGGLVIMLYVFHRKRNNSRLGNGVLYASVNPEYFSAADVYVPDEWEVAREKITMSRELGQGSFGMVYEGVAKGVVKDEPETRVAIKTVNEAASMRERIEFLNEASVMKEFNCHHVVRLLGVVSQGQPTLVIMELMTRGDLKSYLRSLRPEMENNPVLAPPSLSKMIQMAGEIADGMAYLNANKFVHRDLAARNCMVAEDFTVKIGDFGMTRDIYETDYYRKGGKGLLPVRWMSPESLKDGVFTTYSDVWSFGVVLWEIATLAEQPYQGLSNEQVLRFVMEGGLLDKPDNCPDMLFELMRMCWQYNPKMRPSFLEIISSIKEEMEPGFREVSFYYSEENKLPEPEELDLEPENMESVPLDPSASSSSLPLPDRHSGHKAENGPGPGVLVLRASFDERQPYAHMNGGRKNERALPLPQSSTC
Protocol: as §3, §4

[14] = target: T6, EGFR (Homo sapiens, UniProt P00533); test: ADP-Glo kinase assay, EGFR; type: biochemical
T6 construct: purchased Promega

[15] = target: T7, PDGFRβ (Homo sapiens, UniProt P09619); test: ADP-Glo kinase assay, PDGFRβ; type: biochemical
T7 construct: purchased Promega
T7 sequence (P09619 33-1106): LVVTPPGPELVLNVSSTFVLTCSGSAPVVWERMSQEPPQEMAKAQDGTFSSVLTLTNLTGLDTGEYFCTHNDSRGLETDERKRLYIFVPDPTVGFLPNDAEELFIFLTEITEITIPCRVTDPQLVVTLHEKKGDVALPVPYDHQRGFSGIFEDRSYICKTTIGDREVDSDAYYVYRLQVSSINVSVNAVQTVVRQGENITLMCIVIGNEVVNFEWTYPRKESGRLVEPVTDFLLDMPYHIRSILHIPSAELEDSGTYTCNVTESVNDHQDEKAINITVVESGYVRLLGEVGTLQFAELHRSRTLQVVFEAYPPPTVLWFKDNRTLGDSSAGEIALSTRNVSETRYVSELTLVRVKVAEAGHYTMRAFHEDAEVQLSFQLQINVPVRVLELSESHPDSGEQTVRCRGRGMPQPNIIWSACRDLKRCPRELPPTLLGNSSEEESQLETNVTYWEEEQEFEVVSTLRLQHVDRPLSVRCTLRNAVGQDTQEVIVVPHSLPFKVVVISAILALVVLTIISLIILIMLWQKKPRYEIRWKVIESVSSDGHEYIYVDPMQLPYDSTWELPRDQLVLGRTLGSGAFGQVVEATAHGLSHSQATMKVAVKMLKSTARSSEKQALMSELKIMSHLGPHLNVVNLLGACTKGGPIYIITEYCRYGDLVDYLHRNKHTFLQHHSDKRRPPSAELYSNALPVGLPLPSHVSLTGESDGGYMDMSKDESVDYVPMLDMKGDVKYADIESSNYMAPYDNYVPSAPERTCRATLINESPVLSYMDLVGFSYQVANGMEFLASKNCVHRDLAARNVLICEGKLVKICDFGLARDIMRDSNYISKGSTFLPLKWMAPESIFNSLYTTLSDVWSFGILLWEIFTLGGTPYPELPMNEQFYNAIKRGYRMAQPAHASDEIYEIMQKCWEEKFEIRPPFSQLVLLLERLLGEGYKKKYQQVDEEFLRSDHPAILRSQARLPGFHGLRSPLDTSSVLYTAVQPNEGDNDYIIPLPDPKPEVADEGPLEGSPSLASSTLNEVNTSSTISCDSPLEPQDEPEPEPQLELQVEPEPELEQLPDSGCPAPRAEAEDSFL
In short: as §2

[16] = target: T8, HER2 (Homo sapiens, UniProt P04626); test: ADP-Glo kinase assay, HER2; type: biochemical
T8 construct: purchased Promega
Protocol: as §3, §4

[17] = target: T9, Aurora A (Homo sapiens, UniProt O14965); test: ADP-Glo kinase assay, Aurora A; type: biochemical
T9 construct: purchased Promega
T9 sequence (O14965 1-403): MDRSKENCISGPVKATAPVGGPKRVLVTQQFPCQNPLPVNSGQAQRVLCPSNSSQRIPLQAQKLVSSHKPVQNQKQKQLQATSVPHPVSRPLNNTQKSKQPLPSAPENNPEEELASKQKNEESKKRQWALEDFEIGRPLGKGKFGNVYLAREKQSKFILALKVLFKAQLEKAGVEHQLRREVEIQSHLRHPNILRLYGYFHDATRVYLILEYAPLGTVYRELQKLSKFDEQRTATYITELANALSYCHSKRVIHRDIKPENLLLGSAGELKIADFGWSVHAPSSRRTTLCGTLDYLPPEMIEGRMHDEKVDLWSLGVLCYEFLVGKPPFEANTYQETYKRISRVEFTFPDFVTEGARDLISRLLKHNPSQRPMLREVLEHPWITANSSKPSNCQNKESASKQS
Protocol: as §3, §4

[18] = target: T10, KDR (VEGFR-2) (Homo sapiens, UniProt P35968); test: ADP-Glo kinase assay, KDR; type: biochemical
T10 construct: purchased Promega

[19] = system: K562 cell line; test: ROS determination (DCFH-DA, flow cytometry); type: cell-based; settings: 48 h
Protocol: The redox status was assessed using the K562 cell line. […] Then, the cells were washed to remove the 2′,7′-dichlorodihydrofluorescein diacetate by centrifugation at 1000 rpm for 5 min. The measurements were conducted using a Cytomics FC500 Beckman Coulter flow cytometer (FL1 channel for DCF).

[20] = system: K562 cells; test: Cell cycle analysis (propidium iodide, flow cytometry); type: cell-based; settings: 48 h
Protocol: Tumor cells were seeded on a 6-well plate at a density of 400,000 per well for K562. Test compounds 5, 14 and 15 were added at concentrations of 1, 5 and 10 μM in duplicate for 48 h. The methodology and analysis of the obtained data were performed as described in our prior work.
As shown above, compounds 5, 14 and 15 had significant antiproliferative activities, which is why their influences on the cell cycle and apoptosis level were determined, with the aim of understanding whether these effects are cytostatic or cytotoxic. In the cell cycle experiments, K562 cells were used. […] For the determination of changes in the distribution of cells in the phases of the cell cycle, the widely employed method of staining the cells with propidium iodide was used.

SMILES | melting point | IC50 [1] | Antiproliferative activity (IC50) over the studied cell cultures [2] | IC50 [3] | IC50 [4] | IC50 [5] | IC50 [6] | IC50 [7] | IC50 [8] | inhibition at 10 µM [9] | inhibition at 10 µM [10] | inhibition at 10 µM [12] | inhibition at 10 µM [13] | inhibition at 10 µM [15] | inhibition at 10 µM [16] | other results
Cc1cn(-c2cc(NC(=O)c3cccc(C(=O)Nc4cc([N+](=O)[O-])ccc4C)c3)cc(C(F)(F)F)c2)cn1 [Compound 12, N1-(3-(4-methyl-1H-imidazol-1-yl)-5-(trifluoromethyl)phenyl)-N3-(2-methyl-5-nitrophenyl)isophthalamide] | 290 to 292 °C | > 50 µM | lack of sensitivity of the cancer cells in the studied concentration range | > 50 µM | > 50 µM | 27.5 ± 2.58 µM | > 50 µM | 2.36 ± 1.13 µM | > 50 µM |  |  |  |  |  |  | 
Cc1cn(-c2cc(NC(=O)c3ccc(C(=O)Nc4cccc(C(F)(F)F)c4)cc3)cc(C(F)(F)F)c2)cn1 [Compound 17, N1-(3-(4-methyl-1H-imidazol-1-yl)-5-(trifluoromethyl)phenyl)-N4-(3-(trifluoromethyl)phenyl)-terephthalamide] | 208 to 210 °C | > 50 µM | practically did not affect the cell lines’ viability; also recorded: almost no effect on the cell lines’ viability | > 50 µM | > 50 µM | > 50 µM | > 50 µM | > 50 µM | 15.6 µM | ≤ 20% | 0% | 0% | 0% | 15% | 13% | inhibition at 10 µM [11]: 0%; inhibition at 10 µM [14]: 0%; inhibition at 10 µM [17]: 0%; inhibition at 10 µM [18]: 0%
CS(=O)(=O)CCNCc1ccc(-c2ccc3ncnc(Nc4ccc(OCc5cccc(F)c5)c(Cl)c4)c3c2)o1 [Lapatinib, reference compound] |  | 18.6 ± 2.65 µM |  | 27.1 ± 0.08 µM | 10.6 ± 1.02 µM | 7.32 ± 2.15 µM | 10.9 ± 0.34 µM | 9.31 ± 0.9 µM | 9.62 ± 1.56 µM | 2% | 100% | 0% | 0% | 10% | 76% | IC50 ([2]; read-out: Antiproliferative activity (IC50) over the studied cell cultures): 2 to 27 µM; ROS Level, % of Control ([19]; K562, 5 µM): 64.12 % of Control; ROS Level, % of Control ([19]; K562, 10 µM): 72.23 % of Control; ROS Level, % of Control ([19]; K562, 20 µM): 89.07 % of Control; Apoptosis, % (cell cycle analysis) ([20]; K562, 1 µM): 14.74%; G1, % ([20]; K562, 1 µM): 34.47%; G2/M, % ([20]; K562, 1 µM): 52.23%; S, % ([20]; K562, 1 µM): 13.31%; Apoptosis, % (cell cycle analysis) ([20]; K562, 5 µM): 28.92%; G1, % ([20]; K562, 5 µM): 31.31%; G2/M, % ([20]; K562, 5 µM): 55.68%; S, % ([20]; K562, 5 µM): 13.02%
